Experimental data from patent US5021595A, “Transition metal catalyst composition for olefin polymerization” (Exxon Chemical Patents Inc., priority 1990, dated 1991).
Where two headings read alike, the source gives them in different places.

Assays:
[1] = tubular reactor systems, pre-mixing and aging, in some cases; cited from earlier work
[2] = Catalyst lifetime in isothermal tubular reactor polymerization, first order decay; settings: isothermal 40° C.
[3] = Ethylene/propylene copolymerization in continuous flow stirred tank reactor (catalyst productivity); settings: CFSTR, residence time 11 minutes
Method: A series of copolymers based on ethylene and propylene monomers were prepared in a continuous flow stirred tank reactor using the vanadium
The polymerization results as set forth in Table 1 are expressed as polymer made in the reactor in gms per hour.

[4] = Ethylene/propylene copolymerization in tubular reactor (polymerization rate); settings: for Effectiveness in polymerizing ethylene/propylene compared to VCl4 (in words): tubular reactor process; for Polymerization Rate (polymer made in the reactor): tubular reactor, 15° C. at the initial zone, adiabatic, premix 8 sec at 10° C. (Example 12) or -10° C. (all others)
Source text: The polymerization results are shown in Table II and are expressed/as polymer made in the reactor in gms per hour.

[5] = Conversion of vanadium component into active catalyst (tubular reactor, premixing); settings: premixing residence time 8 seconds, temperature varied to maximize conversion
Method: The vanadium component attains a maximum conversion to the active catalyst under certain premixing conditions determined by the concentrations of the vanadium and aluminum components and the residence time in the premixing zone and the reaction temperature. The experiment was conducted with identical concentrations of vanadium compound and the same molar ratio of aluminum to vanadium. The premixing experiment was run for the residence time of 8 seconds and the reaction temperature was varied to maximize the conversion of the vanadium component into the active catalyst.

[6] = Preparation of polyethylene (batch ethylene polymerization); settings: 1 mmole catalyst, 5 mmoles ethyl aluminum sesquichloride, room temperature, 0.5 hrs
Method: In a 1.5 liter reaction vessel was introduced 800 ml of hexane. This was maintained at room temperature and ethylene was slowly bubbled in at the rate of 34 gms/hour. When the solution was saturated, 5 mmoles of Ethyl aluminum sesquichloride was added as a solution in hexane followed by a solution of 1 mmole of the transition metal catalyst compound dissolved in toluene. […] The polymerization was maintained for 0.5 hrs with constant monomer addition. At the end of the polymerization period, the polymerization was terminated by the addition of 5 ml of isopropanol and the polymer was recovered by filtration and dried to constant weight.

[7] = Copolymerization of norbornene type monomers with ethylene/propylene in CFSTR; settings: 30° C.
Method: Polymerization experiments were conducted in a continuous flow stirred tank reactor process wherein norbornene type monomers such as norbornene and 5-ethylidene-2-norbornene (ENB) are copolymerized employing the invention catalysts. The polymerization was conducted under the following conditions:
Ethyl aluminum sesquichloride:
Tetraethoxysilane at .208 gms/hr

[8] = tubular reactor
[9] = Condition A: no norbornene monomer
[10] = Condition B: Norbornene at 10.3 gms/hr
[11] = Condition C: Norbornene at 20.6 gms/hr
[12] = Condition D: ENB at 12.4 gms/hr + Tetraethoxysilane at .208 gms/hr

| Half-Life at 40° C. [8] [s] | Molecule | Deactivation of catalyst formed, based on the moles of the initial vanadium compound added [1] | Half-Life at 40° C. [2] [s] | Catalyst Productivity at Specified Temperature (polymer made in the reactor) ([3]; 30° C.) [gms per hour] | Catalyst Productivity at Specified Temperature (polymer made in the reactor) ([3]; 45° C.) [gms per hour] | Catalyst Productivity at Specified Temperature (polymer made in the reactor) ([3]; 60° C.) [gms per hour] | Effectiveness in polymerizing ethylene/propylene compared to VCl4 (in words) [4] | Polymerization Rate (polymer made in the reactor) [4] [gms per hour] | Catalyst Conv % (percentage of vanadium converted to the active catalyst at maximum) [5] [%] | Wt of PE [6] [GMS] | Polymerization rate [7, 9] [gms/hr] | Polymerization rate [7, 10] [gms/hr] | Polymerization rate [7, 11] [gms/hr] | Polymerization rate [7, 12] [gms/hr] |
| --- | --- | --- | --- | --- | --- | --- | --- | --- | --- | --- | --- | --- | --- | --- |
|  | Tetra chloro vanadium (+4) [Catalyst Code 0, reference compound] | up to 55 mole percent | 2.5 |  |  |  |  |  |  |  |  |  |  |  |
| 11.6 | CC(=O)C=C(C)[O][V]([Cl])[O]C(C)=CC(C)=O [Catalyst Code 2, Bis (2,4-pentanedionate) mono chloro vanadium (+3)] |  |  | 92 | 64 | 51 | significantly more effective than VCL4 in polymerizing ethylene/propylene monomers | 878 | 72 | 14.3 | 169 | 164 | 159 | 152 |
|  | Bis hexanoate mono chloro vanadium (+3) [Catalyst Code 1] |  | 19.8 | 95 | 68 | 58 | significantly more effective than VCL4 in polymerizing ethylene/propylene monomers | 832 | 67 | 13.9 | 171 | 171 | 168 | 160 |
|  | CC(=O)C=C(C)[O-].CCCCCC(=O)[O-].[Cl-].[V+3] [Catalyst Code 3, Hexanoate (2,4-Pentanedionate) mono chloro vanadium (+3)] |  | 13.8 | 87 | 64 | 51 | significantly more effective than VCL4 in polymerizing ethylene/propylene monomers | 891 | 75 | 15.0 | 165 | 178 | 164 | 165 |
|  | Bis hexanoate mono chloro titanium [Catalyst Code 5] |  |  |  |  |  |  |  |  | 13.5 |  |  |  |  |
|  | Hexanoate Salicaldehyde mono chloro vanadium (+3) [Catalyst Code 4] |  | 10.0 | 90 | 73 | 56 |  |  |  | 15.0 |  |  |  |  |
